IC50 data for eight compounds are collected here from patent US20260015353A1, “NOVEL COMPOUNDS” (Hoffmann-La Roche Inc., priority 2022, published 2026).

Molecules are shown by their SMILES.

In assay [1] the target is T1, NLRP3 (Homo sapiens, UniProt Q96P20). As to the kind of experiment: THP-1 cells pyroptosis assay (LPS + nigericin, resazurin readout). The class given is cell-based. Also noted: Seed THP-1 cells (25,000cells/well) containing 1.0 μg/ml LPS; host or cells: THP-1 cells, LPS-primed, nigericin-stimulated. To be noted: 1.0 μg/ml LPS, compound 3 hours, nigericin 5 μM 1 hr. On the procedure:
THP-1 cells (ATCC #TIB-202) were grown in RPMI containing L-glutamine (Gibco #11835) supplemented with 1 mM sodium pyruvate (Sigma #S8636) and penicillin (100 units/ml)/streptomycin (0.1 mg/ml) (Sigma #P4333) in 10% Fetal Bovine Serum (FBS) (Sigma #F0804). The cells were routinely passaged and grown to confluency (˜10^6cells/ml). On the day of the experiment, THP-1 cells were harvested and resuspended into RPMI medium (without FBS). The cells were then counted and viability (>90%) checked by Trypan blue (Sigma #T8154). Appropriate dilutions were made to give a concentration of 625,000cells/ml. To this diluted cell solution was added LPS (Sigma #L4524) to give a lug/ml Final Assay Concentration (FAC). 40 μl of the final preparation was aliquoted into each well of a 96-well plate. The plate thus prepared was used for compound screening.
The following method step-by-step assay was followed for compound screening. • 1. Seed THP-1 cells (25,000cells/well) containing 1.0 μg/ml LPS in 40 μl of RPMI medium (without FBS) in 96-well, black walled, clear bottom cell culture plates coated with poly-D-lysine (VWR #734-0317) • 2. Add 5 μl compound (8 points half-log dilution, with 10 μM top dose) or vehicle (DMSO 0.1% FAC) to the appropriate wells • 3. Incubate for 3 hours at 37° C., 5% CO2 • 4. Add 5 μl nigericin (Sigma #N7143) (FAC 5 μM) to all wells • 5. Incubate for 1 hr at 37° C., 5% CO2 • 6. At the end of the incubation period, spin plates at 300×g for 3 mins and remove supernatant • 7. Then add 50 μl of resazurin (Sigma #R^7017) (FAC 100 μM resazurin in RPMI medium without FBS) and incubate plates for a further 1-2 hours at 37° C. and 5% CO2 • 8. Plates were read in an Envision reader at Ex 560 nm and Em 590 nm • 9. IC50 data is fitted to a non-linear regression equation (log inhibitor vs response-variable slope 4-parameters)

Assay [2] addresses T1, NLRP3. As to the kind of experiment: Human whole blood IL-1β release assay (LPS + nigericin, AlphaLisa). It is filed as cell-based. Details: Human whole blood in Li-heparin tubes was obtained from healthy donors; from tissue; host or cells: human whole blood from healthy donors, LPS-primed, nigericin-stimulated. The conditions noted are these: 1 ug/ml LPS, compound 3 hours, nigericin 10 μM 1 hr, IL-1β in supernatant. How it is done:
For systemic delivery, the ability to inhibit NLRP3 when the compounds are present within the bloodstream is of great importance. For this reason, the NLRP3 inhibitory activity of a number of compounds in human whole blood was investigated in accordance with the following protocol.
Human whole blood in Li-heparin tubes was obtained from healthy donors from a volunteer donor panel. • 1. Plate out 80 μl of whole blood containing lug/ml of LPS in 96-well, clear bottom cell culture plate (Corning #3585) • 2. Add 10 μl compound (8 points half-log dilution with 10 μM top dose) or vehicle (DMSO 0.1% FAC) to the appropriate wells • 3. Incubate for 3 hours at 37° C., 5% CO2 • 4. Add 10 μl nigericin (Sigma #N7143) (10 μM FAC) to all wells • 5. Incubate for 1 hr at 37° C., 5% CO2 • 6. At the end of the incubation period, spin plates at 300×g for 5 mins to pellet cells and remove 20 μl of supernatant and add to 96-well v-bottom plates for IL-1β analysis (note: these plates containing the supernatants can be stored at −80° C. to be analysed at a later date) • 7. IL-1β was measured according to the manufacturer protocol (Perkin Elmer-AlphaLisa IL-1 Kit AL220F-5000) • 8. IC50 data is fitted to a non-linear regression equation (log inhibitor vs response-variable slope 4-parameters)
A general note: Alpha assays give light when donor and acceptor beads are brought close together.

T1 sequence (Q96P20 whole entry): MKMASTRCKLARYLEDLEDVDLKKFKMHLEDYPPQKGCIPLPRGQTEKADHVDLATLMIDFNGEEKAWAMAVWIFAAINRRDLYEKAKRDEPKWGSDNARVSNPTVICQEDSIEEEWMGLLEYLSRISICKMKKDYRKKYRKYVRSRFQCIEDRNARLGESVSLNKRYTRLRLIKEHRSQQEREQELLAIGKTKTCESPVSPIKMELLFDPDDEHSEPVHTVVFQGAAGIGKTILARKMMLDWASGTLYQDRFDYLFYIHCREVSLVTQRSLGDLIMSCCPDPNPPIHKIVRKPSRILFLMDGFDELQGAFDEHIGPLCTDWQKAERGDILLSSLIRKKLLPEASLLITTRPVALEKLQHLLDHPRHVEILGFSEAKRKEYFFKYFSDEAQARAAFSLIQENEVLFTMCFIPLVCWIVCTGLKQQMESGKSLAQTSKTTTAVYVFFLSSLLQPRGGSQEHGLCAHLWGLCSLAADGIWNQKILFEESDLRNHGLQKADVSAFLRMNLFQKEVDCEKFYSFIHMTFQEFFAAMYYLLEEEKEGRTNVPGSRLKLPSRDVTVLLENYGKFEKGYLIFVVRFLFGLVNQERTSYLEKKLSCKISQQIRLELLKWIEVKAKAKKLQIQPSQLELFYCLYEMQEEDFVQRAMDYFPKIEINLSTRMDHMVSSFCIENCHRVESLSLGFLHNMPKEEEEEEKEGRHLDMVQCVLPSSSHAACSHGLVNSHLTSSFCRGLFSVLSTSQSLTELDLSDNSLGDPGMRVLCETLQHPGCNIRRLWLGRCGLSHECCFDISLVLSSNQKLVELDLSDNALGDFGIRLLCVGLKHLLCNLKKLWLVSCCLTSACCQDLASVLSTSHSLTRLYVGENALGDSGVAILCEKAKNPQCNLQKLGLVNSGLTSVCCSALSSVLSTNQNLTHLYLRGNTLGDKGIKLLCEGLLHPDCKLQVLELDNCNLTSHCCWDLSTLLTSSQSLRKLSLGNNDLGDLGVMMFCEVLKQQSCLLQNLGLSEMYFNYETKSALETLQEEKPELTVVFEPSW

Turning to `CCN1CCC2CCN(c3nnc(-c4ccc(C#N)cc4O)c(C)n3)C2C1` (single isomer, unassigned) [Example 2B, 4-[3-[(3aR,7aS)-6-Ethyl-3,3a,4,5,7,7a-hexahydro-2H-pyrrolo[2,3-c]pyridin-1-yl]-5-methyl-1,2,4-triazin-6-yl]-3-hydroxy-benzonitrile or 4-[3-[(3aS,7aR)-6-ethyl-3,3a,4,5,7,7a-hexahydro-2H-pyrrolo[2,3-c]pyridin-1-yl]-5-methyl-1,2,4-triazin-6-yl]-3-hydroxy-benzonitrile], on NLRP3 [1], the IC50 is more than 1 µM.
Regarding `Cc1nc(N2CC[C@@H]3CCN(C)C[C@@H]32)nnc1-c1ccc2c(c1O)CCO2` (single isomer, unassigned) [Example 3A, 5-[3-[(3aS,7aR)-6-Methyl-3,3a,4,5,7,7a-hexahydro-2H-pyrrolo[2,3-c]pyridin-1-yl]-5-methyl-1,2,4-triazin-6-yl]-2,3-dihydrobenzofuran-4-ol or 5-[3-[(3aR,7aS)-6-methyl-3,3a,4,5,7,7a-hexahydro-2H-pyrrolo[2,3-c]pyridin-1-yl]-5-methyl-1,2,4-triazin-6-yl]-2,3-dihydrobenzofuran-4-ol], the IC50 at NLRP3 [1] was found to be 0.0019 µM; on NLRP3 [2], 0.007 µM.
With `CCN1CCC2CCN(c3nnc(-c4ccc5c(c4O)CCO5)c(C)n3)C2C1` (single isomer, unassigned) [Example 1A, 5-[3-[(3aS,7aR)-6-Ethyl-3,3a,4,5,7,7a-hexahydro-2H-pyrrolo[2,3-c]pyridin-1-yl]-5-methyl-1,2,4-triazin-6-yl]-2,3-dihydrobenzofuran-4-ol or 5-[3-[(3aR,7aS)-6-ethyl-3,3a,4,5,7,7a-hexahydro-2H-pyrrolo[2,3-c]pyridin-1-yl]-5-methyl-1,2,4-triazin-6-yl]-2,3-dihydrobenzofuran-4-ol], the IC50 on NLRP3 [1] came out at 0.0018 µM; at NLRP3 [2], 0.012 µM.
Consider `Cc1nc(N2CC[C@@H]3CCN(C)C[C@@H]32)nnc1-c1ccc(C#N)cc1O` (single isomer, unassigned) [Example 4A, 4-[3-[(3aS,7aR)-6-Methyl-3,3a,4,5,7,7a-hexahydro-2H-pyrrolo[2,3-c]pyridin-1-yl]-5-methyl-1,2,4-triazin-6-yl]-3-hydroxy-benzonitrile or 4-[3-[(3aR,7aS)-6-methyl-3,3a,4,5,7,7a-hexahydro-2H-pyrrolo[2,3-c]pyridin-1-yl]-5-methyl-1,2,4-triazin-6-yl]-3-hydroxy-benzonitrile], for which the figures for the concentration for half-maximal inhibition (IC50) on NLRP3 [1] and on NLRP3 [2] were 0.0474 µM and 0.041 µM, respectively.
Consider `Cc1nc(N2CCC3CCN(C)CC32)nnc1-c1ccc(C#N)cc1O` (single isomer, unassigned) [Example 4B, 4-[3-[(3aR,7aS)-6-Methyl-3,3a,4,5,7,7a-hexahydro-2H-pyrrolo[2,3-c]pyridin-1-yl]-5-methyl-1,2,4-triazin-6-yl]-3-hydroxy-benzonitrile or 4-[3-[(3aS,7aR)-6-methyl-3,3a,4,5,7,7a-hexahydro-2H-pyrrolo[2,3-c]pyridin-1-yl]-5-methyl-1,2,4-triazin-6-yl]-3-hydroxy-benzonitrile], for which the 50% inhibitory concentration (IC50) on NLRP3 [1] was more than 1 µM.
Consider `Cc1nc(N2CCC3CCN(C)CC32)nnc1-c1ccc2c(c1O)CCO2` (single isomer, unassigned) [Example 3B, 5-[3-[(3aR,7aS)-6-Methyl-3,3a,4,5,7,7a-hexahydro-2H-pyrrolo[2,3-c]pyridin-1-yl]-5-methyl-1,2,4-triazin-6-yl]-2,3-dihydrobenzofuran-4-ol or 5-[3-[(3aS,7aR)-6-methyl-3,3a,4,5,7,7a-hexahydro-2H-pyrrolo[2,3-c]pyridin-1-yl]-5-methyl-1,2,4-triazin-6-yl]-2,3-dihydrobenzofuran-4-ol], for which the IC50 at NLRP3 [1] was 0.0522 µM; at NLRP3 [2] it was 0.115 µM.
For the compound `CCN1CCC2CCN(c3nnc(-c4ccc5c(c4O)CCO5)c(C)n3)C2C1` (single isomer, unassigned) [Example 1B, 5-[3-[(3aR,7aS)-6-Ethyl-3,3a,4,5,7,7a-hexahydro-2H-pyrrolo[2,3-c]pyridin-1-yl]-5-methyl-1,2,4-triazin-6-yl]-2,3-dihydrobenzofuran-4-ol or 5-[3-[(3aS,7aR)-6-ethyl-3,3a,4,5,7,7a-hexahydro-2H-pyrrolo[2,3-c]pyridin-1-yl]-5-methyl-1,2,4-triazin-6-yl]-2,3-dihydrobenzofuran-4-ol], the IC50 is 0.0644 µM at NLRP3 [1] and 0.375 µM on NLRP3 [2].
As to `CCN1CC[C@H]2CCN(c3nnc(-c4ccc(C#N)cc4O)c(C)n3)[C@H]2C1` (single isomer, unassigned) [Example 2A, 4-[3-[(3aS,7aR)-6-Ethyl-3,3a,4,5,7,7a-hexahydro-2H-pyrrolo[2,3-c]pyridin-1-yl]-5-methyl-1,2,4-triazin-6-yl]-3-hydroxy-benzonitrile or 4-[3-[(3aR,7aS)-6-ethyl-3,3a,4,5,7,7a-hexahydro-2H-pyrrolo[2,3-c]pyridin-1-yl]-5-methyl-1,2,4-triazin-6-yl]-3-hydroxy-benzonitrile], the IC50 on NLRP3 [1] was determined as 0.0364 µM; at NLRP3 [2], 0.038 µM.

As a reminder, the IC50 is the concentration that gives 50% inhibition.
